Laboratory results published in patent publication US20230321012A1 (priority 2021, published 2023).
Where “and” joins values, the source holds several entries; their conditions need not be identical. Equal entries are not always repeated. Where two headings read alike, the source gives them in different places. Values belong to the compound of their own block, whether it stands above or below them.

Tests used:
in vivo = conditions: male, Th-MYCN, mouse
Description: (§1) Male Th-MYCN mice, approximately 5-6 weeks of age, with spontaneous neuroblastoma tumor development commenced treatment according to Table 6.1 when tumors were approximately 5 mm in size. […] Time point: three treatments, cull 24 hours after last treatment in the morning.
(§2) Sample Preparation. Animals were euthanized on the morning of the 4th day, after three days of treatment and shaved, and then the carcasses were frozen. Tissues stored at −80° C. were placed inside the cryostat. The temperature of the cryostat was maintained around −20° C. and −40° C. 20-am tissue sections in the sagittal plane going through the left eye were obtained for each carcass. Tissue sections were mounted directly on indium tin oxide (ITO) slides.
(§3) Tissue sections on ITO slides were placed in a desiccator for 15 minutes before matrix deposition. An image of the slides was then acquired with a scanner to synchronize positions of the tissue sections with the target of the laser.
(§4) Dilution series of the test items were prepared in water from the stock solutions. […] A spot of pure solvent was added as a negative control. Slides were then placed in a desiccator for 15 minutes before MALDI matrix deposition. The control liver tissue consisted of a liver homogenate spiked with an olanzapine standard at 40 g/g of tissue. Sections of the liver homogenate were prepared and added on each ITO slide in order to monitor the signal of the FTICR through the different acquisitions and thus validate the comparison between slides.
(§5) For AMXT 1501, 2,5-dihydroxybenzoic acid (DHB) at 40 mg/ml in 1:1 MeOH/H2O with 1% trifluoroacetic acid (TFA) and 25 nM of ^13C4-AMXT 1501 was sprayed on the samples with an automatic sprayer (TM-Sprayer, HTX-Imaging).
(§6) The mass spectrometry imaging (MSI) acquisitions were performed using the parameters in Table 6.2 with a data reduction parameter set at 95%. MSI data were acquired and analyzed with FlexImaging 4.1 (Bruker Daltonics), Data Analysis 4.0 (Bruker Daltonics) and Multimaging™ 1.2.2 (ImaBioTech).
(§7) Intensity scales representing the molecular signal were adjusted for each image to discriminate the noise from the molecular signal but also to give the best visualization of the signal across the sections. […] Convolution step was performed on the original images using a normalized uniform kernel, which averages the values around a position. The kernel size was manually optimized for the analysis, minimizing the background noise. Based on the MSI data set on the tissue sections and the dilution series, the quantitation of the test items was performed with the IS approach. A correlation between the calibration curve and the signal obtained on the tissues was performed in order to determine the concentration of the test items per histological structure in g/g of tissue and μM.

[1] = Clinical safety and tolerability, dose-limiting toxicities (NCT03536728); format: in vivo
Description: Clinical Trial Outline. […] All solid tumor types are eligible for the trial. […] DFMO was delivered orally twice daily in gel capsules.
These DLTs involved vomiting, diarrhea and nausea, and inferred a potential dual drug targeting of the gastrointestinal (GI) tract in these patients. One patient experienced severe dehydration, requiring hospitalization. A similar observation was made in dogs in Aminex's 28-day toxicological testing. […] The clinical observations and the data obtained in dog studies, together, support the hypothesis that combined oral drug dosing levels and DFMO targeting of the GI tract are causing the intolerance.
In cohorts before Part 2, Cohort 4, 14 adults were treated at 1,200 mg or higher of AMXT 1501 daily, either once daily or BID, with no DLTs. A total of 18 patients were treated at 800 mg AMXT 1501 or higher daily with no DLTs. These patients included a couple of adult patients where Cmax values above 1,000 ng/mL AMXT 1501 plasma levels were observed, again with no DLTs observed.

[2] = mouse, in vivo
four tumor cell lines [3] = conditions: average, growth of four cell lines in culture; read-out: in vitro EC50 against cancer cells; cited from earlier work
four tumor cell lines [4] = assay: In vitro tumor cell growth inhibition by AMXT 1501; format: cell-based; conditions: equivalent of 51 nM
Description: See Burns, M. R., et al., J Med Chem 52, 1983-1993 (2009), the entire content of which is incorporated herein by reference.

[5] = Water solubility, bioavailability and Biopharmaceutics Classification System class; format: physicochemical
Description: Interim data for the pharmacokinetic (PK) behavior of both agents in human subjects has been generated.

[6] = MALDI-FTICR imaging quantitation of DFMO in whole-body sections of Th-MYCN mice; format: in vivo, mouse; conditions: for concentration at 96 h: male, Th-MYCN, mouse
Description: as §1, §2, §3, §4, §5, §6, §7

[7] = COMBO (1% DFMO + AMXT 1501 2.5 mg/kg SC), mice 284, 286, 96 h, 2.5 mg/kg
[8] = DFMO alone 1% in drinking water, mice 049, 082, 96 h

SMILES: CCCCCCCCCCCCCCCC(=O)NCCCC[C@@H](N)C(=O)NCCCNCCCCNCCCN [AMXT 1501, D-lys(palmitoyl)-spermine]
concentration at 96 h (in vivo; brown fat, sc, 2.5 mg/kg): 8330 ng/g
concentration at 96 h (in vivo; cardiac blood, sc, 2.5 mg/kg): 8370 ng/g
concentration at 96 h (in vivo; eye, sc, 2.5 mg/kg): 9300 ng/g
concentration at 96 h (in vivo; intestine contents, sc, 2.5 mg/kg): 8470 ng/g
concentration at 96 h (in vivo; intestine wall, sc, 2.5 mg/kg): 9000 ng/g
concentration at 96 h (in vivo; intestine wall, subcutaneous, 2.5 mg/kg): 11400 ng/g
concentration at 96 h (in vivo; kidney, sc, 2.5 mg/kg): 5640 ng/g
concentration at 96 h (in vivo; kidney, subcutaneous, 2.5 mg/kg): 12100 ng/g
concentration at 96 h (in vivo; liver, sc, 2.5 mg/kg): 8870 ng/g
concentration at 96 h (in vivo; liver, subcutaneous, 2.5 mg/kg): 9530 ng/g
concentration at 96 h (in vivo; lung, sc, 2.5 mg/kg): 14500 ng/g
concentration at 96 h (in vivo; lung, subcutaneous, 2.5 mg/kg): 17000 ng/g
concentration at 96 h (in vivo; myocardium, sc, 2.5 mg/kg): 8440 ng/g
concentration at 96 h (in vivo; myocardium, subcutaneous, 2.5 mg/kg): 9590 ng/g
concentration at 24 h (in vivo; organs (range across organs), subcutaneous, 2.5 mg/kg): 3360 ng/g to 17000 ng/g and 5.9 µM to 29.9 µM
concentration at 24 h (in vivo; organs, range from intestine contents to lung, subcutaneous, 2.5 mg/kg): 3360 to 17000 ng/g
concentration at 96 h (in vivo; pancreas, sc, 2.5 mg/kg): 8430 ng/g
concentration at 96 h (in vivo; pancreas, subcutaneous, 2.5 mg/kg): 8540 ng/g
concentration at 96 h (in vivo; spleen, subcutaneous, 2.5 mg/kg): 12900 ng/g
concentration at 96 h (in vivo; stomach contents, sc, 2.5 mg/kg): 8800 ng/g
concentration at 96 h (in vivo; stomach contents, subcutaneous, 2.5 mg/kg): 8480 ng/g
concentration at 96 h (in vivo; stomach wall, sc, 2.5 mg/kg): 8550 ng/g
concentration at 96 h (in vivo; stomach wall, subcutaneous, 2.5 mg/kg): 8810 ng/g
concentration at 96 h (in vivo; testis, sc, 2.5 mg/kg): 9160 ng/g
concentration at 96 h (in vivo; testis, subcutaneous, 2.5 mg/kg): 9820 ng/g
concentration at 96 h (in vivo; thymus, sc, 2.5 mg/kg): 10700 ng/g
concentration at 96 h (in vivo; thymus, subcutaneous, 2.5 mg/kg): 13900 ng/g
concentration at 96 h (in vivo; tumor, sc, 2.5 mg/kg): 10000 ng/g
concentration at 24 h (in vivo; tumor, subcutaneous): 12.7 µM
concentration at 24 h (in vivo; tumor, subcutaneous, 2.5 mg/kg): 7230 ng/mL and 10000 ng/g and 17.6 µM
dose-limiting toxicities ([1]; 14 adults at 1,200 mg or higher of AMXT 1501 daily, QD or BID, cohorts before Part 2 Cohort 4): no DLTs
dose-limiting toxicities ([1]; 18 patients at 800 mg AMXT 1501 or higher daily): no DLTs
effect of DFMO on AMXT 1501 tumor retention [2]: no effect
tumor AUC, AMXT 1501 [2]: 152,000 hr*ng/mL
tumor AUC0-∞, AMXT 1501 ([2]; sc, 2.5 mg/kg): 138,000 hr*ng/mL
EC50 (four tumor cell lines [3]): 51 nM
EC50 expressed per tissue weight (four tumor cell lines [4]): 0.029 µg/g
EC50 (four tumor cell lines [4]; read-out: EC50 as equivalent plasma concentration): 0.028 µg/mL

water solubility [5]: high water solubility
DFMO in Intestine wall ([6]; COMBO (1% DFMO + AMXT 1501 2.5 mg/kg SC), mice 284, 286, 96 h): 6156 µg/g
DFMO in Cardiac blood [6, 7]: 20.9 µg/g
DFMO in Eye [6, 7]: 49.3 µg/g
DFMO in Intestine contents [6, 7]: 8702 µg/g and 11264 µg/g
DFMO in Liver [6, 7]: 33.0 µg/g
DFMO in Lung [6, 7]: 43.1 µg/g
DFMO in Myocardium [6, 7]: 26.2 µg/g
DFMO in Cardiac blood [6, 8]: 16.5 µg/g
DFMO in Eye [6, 8]: 28.8 µg/g
DFMO in Intestine contents [6, 8]: 3487 µg/g and 2267 µg/g
DFMO in Kidney [6, 8]: 133 µg/g
DFMO in Liver [6, 8]: 28.5 µg/g
DFMO in Lung [6, 8]: 24.8 µg/g
DFMO concentration in tumor ([6]; DFMO only treatment group): 35 μg/g and 192 μM
tumor DFMO levels ([6]; MYCN mice after overnight drinking of 1% DFMO orally): 165 to 192 µM
DFMO concentration in tumor ([6]; combination treatment group): 30 μg/g and 165 μM
tumor DFMO concentration versus Ki ([6]; combination treatment group): 4.2 times
concentration at 96 h ([6]; brown fat, oral, 40 mg/day, DFMO in brown fat): ~25000 ng/g
concentration at 96 h ([6]; brown fat, oral, 1 % in drinking water, DFMO in Brown fat, DFMO alone 1% in drinking water, mice 049, 082, 96 h): 22600 ng/g
concentration at 96 h ([6]; brown fat, sc, 2.5 mg/kg, DFMO in Brown fat, COMBO (1% DFMO + AMXT 1501 2.5 mg/kg SC), mice 284, 286, 96 h): 27500 ng/g
concentration at 96 h ([6]; cardiac blood, oral, 40 mg/day, DFMO in cardiac blood, combination and single administration regimens): 16000 to 35000 ng/g
concentration at 96 h ([6]; cardiac blood, oral, 1 % in drinking water, DFMO in Cardiac blood, DFMO alone 1% in drinking water, mice 049, 082, 96 h): 27800 ng/g
concentration at 96 h ([6]; cardiac blood, sc, 2.5 mg/kg, DFMO in Cardiac blood, COMBO (1% DFMO + AMXT 1501 2.5 mg/kg SC), mice 284, 286, 96 h): 35400 ng/g
concentration at 96 h ([6]; eye, oral, 1 % in drinking water, DFMO in Eye, DFMO alone 1% in drinking water, mice 049, 082, 96 h): 33000 ng/g
concentration at 96 h ([6]; eye, sc, 2.5 mg/kg, DFMO in Eye, COMBO (1% DFMO + AMXT 1501 2.5 mg/kg SC), mice 284, 286, 96 h): 92100 ng/g
concentration at 96 h ([6]; intestine wall, oral, 1 % in drinking water, DFMO in Intestine wall, DFMO alone 1% in drinking water, mice 049, 082, 96 h): 803000 ng/g
concentration at 96 h ([6]; kidney, oral, 1 % in drinking water, DFMO in Kidney, DFMO alone 1% in drinking water, mice 049, 082, 96 h): 77600 ng/g
concentration at 96 h ([6]; liver, oral, 1 % in drinking water, DFMO in Liver, DFMO alone 1% in drinking water, mice 049, 082, 96 h): 36100 ng/g
concentration at 96 h ([6]; liver, sc, 2.5 mg/kg, DFMO in Liver, COMBO (1% DFMO + AMXT 1501 2.5 mg/kg SC), mice 284, 286, 96 h): 44700 ng/g
concentration at 96 h ([6]; lung, oral, 1 % in drinking water, DFMO in Lung, DFMO alone 1% in drinking water, mice 049, 082, 96 h): 48700 ng/g
concentration at 96 h ([6]; lung, sc, 2.5 mg/kg, DFMO in Lung, COMBO (1% DFMO + AMXT 1501 2.5 mg/kg SC), mice 284, 286, 96 h): 64700 ng/g
concentration at 96 h ([6]; myocardium, oral, 1 % in drinking water, DFMO in Myocardium, DFMO alone 1% in drinking water, mice 049, 082, 96 h): 10000 ng/g
concentration at 96 h ([6]; myocardium, sc, 2.5 mg/kg, DFMO in Myocardium, COMBO (1% DFMO + AMXT 1501 2.5 mg/kg SC), mice 284, 286, 96 h): 28500 ng/g
concentration at 96 h ([6]; oral, 40 mg/day, DFMO in eye, kidney, liver, lung, testis and thymus, range from testis to eye, both treatments): 14000 to 92000 ng/g
concentration at 96 h ([6]; pancreas, sc, 2.5 mg/kg, DFMO in Pancreas, COMBO (1% DFMO + AMXT 1501 2.5 mg/kg SC), mice 284, 286, 96 h): 83000 ng/g
concentration at 96 h ([6]; spleen, sc, 2.5 mg/kg, DFMO in Spleen, COMBO (1% DFMO + AMXT 1501 2.5 mg/kg SC), mice 284, 286, 96 h): 83600 ng/g
concentration at 96 h ([6]; stomach contents, sc, 2.5 mg/kg, DFMO in Stomach contents, COMBO (1% DFMO + AMXT 1501 2.5 mg/kg SC), mice 284, 286, 96 h): 111000 ng/g
concentration at 96 h ([6]; stomach wall, oral, 1 % in drinking water, DFMO in Stomach wall, DFMO alone 1% in drinking water, mice 049, 082, 96 h): 216000 ng/g
concentration at 96 h ([6]; stomach wall, sc, 2.5 mg/kg, DFMO in Stomach wall, COMBO (1% DFMO + AMXT 1501 2.5 mg/kg SC), mice 284, 286, 96 h): 44500 ng/g
concentration at 96 h ([6]; testis, oral, 1 % in drinking water, DFMO in Testis, DFMO alone 1% in drinking water, mice 049, 082, 96 h): 14500 ng/g
concentration at 96 h ([6]; testis, sc, 2.5 mg/kg, DFMO in Testis, COMBO (1% DFMO + AMXT 1501 2.5 mg/kg SC), mice 284, 286, 96 h): 48200 ng/g
concentration at 96 h ([6]; thymus, oral, 1 % in drinking water, DFMO in Thymus, DFMO alone 1% in drinking water, mice 049, 082, 96 h): 20900 ng/g
concentration at 96 h ([6]; thymus, sc, 2.5 mg/kg, DFMO in Thymus, COMBO (1% DFMO + AMXT 1501 2.5 mg/kg SC), mice 284, 286, 96 h): 26700 ng/g
concentration at 96 h ([6]; tumor, oral, 1 % in drinking water, DFMO in Tumor, DFMO alone 1% in drinking water, mice 049, 082, 96 h): 35100 ng/g
concentration at 96 h ([6]; tumor, sc, 2.5 mg/kg, DFMO in Tumor, COMBO (1% DFMO + AMXT 1501 2.5 mg/kg SC), mice 284, 286, 96 h): 30400 ng/g
SMILES: NCCCC(N)(C(=O)O)C(F)F (stereo not drawn) [DFMO, difluoromethylornithine]
